This note sets out measurements from PubChem BioAssay AID328 (DTP/NCI, 2004).

“And” between values parts separate entries of the source, which are not always exact repeats. Equal entries are not always repeated. Toxic doses and inconclusive results are not listed.

This experiment deals with BDF1 mice, P388 leukemia ip, median survival T/C. The experiment is described as follows: NCI In Vivo Anticancer Drug Screen. Data for tumor model P388 Leukemia (intraperitoneal) in B6D2F1 (BDF1) mice. The following applies: endpoint: median survival time, higher = longer survival. In a few lines: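 Mice carrying the transplantable tumour receive compound or vehicle. Survival is followed in each arm, and the treated measure is divided by the vehicle measure.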

The mark [1] stands for this setting: dose: 3.12 mg/kg/injection, schedule: Q01DX009 (ip), vehicle: saline with Tween-80.
The mark [2] stands for this setting: dose: 6.25 mg/kg/injection, schedule: Q01DX009 (ip), vehicle: saline with Tween-80.
[3] abbreviates: dose: 25.0 mg/kg/injection, schedule: Q04DX003 (ip), vehicle: saline with Tween-80.
Where [4] appears, read: dose: 50.0 mg/kg/injection, schedule: Q04DX003 (ip), vehicle: saline with Tween-80.
Setting [5] is: dose: 100.0 mg/kg/injection, schedule: Q01DX009 (ip), vehicle: saline with Tween-80.
The mark [6] stands for this setting: dose: 100.0 mg/kg/injection, schedule: Q04DX003 (ip), vehicle: saline with Tween-80.
The mark [7] stands for this setting: dose: 200.0 mg/kg/injection, schedule: Q04DX003 (ip), vehicle: saline with Tween-80.
Where [8] appears, read: dose: 50.0 mg/kg/injection, schedule: Q01DX009 (ip), vehicle: saline with Tween-80.
Setting [9] is: dose: 200.0 mg/kg/injection, schedule: Q01DX009 (ip), vehicle: saline with Tween-80.
Setting [10] is: dose: 12.5 mg/kg/injection, schedule: Q01DX009 (ip), vehicle: saline with Tween-80.
Setting [11] is: dose: 400.0 mg/kg/injection, schedule: Q01DX009 (ip), vehicle: saline with Tween-80.
Where [12] appears, read: dose: 400.0 mg/kg/injection, schedule: Q04DX003 (ip), vehicle: saline with Tween-80.
Setting [13] is: dose: 100.0 mg/kg/injection, schedule: Q04DX003 (ip), vehicle: Klucel (hydroxypropylcellulose) (HPC).
The mark [14] stands for this setting: dose: 200.0 mg/kg/injection, schedule: Q04DX003 (ip), vehicle: Klucel (hydroxypropylcellulose) (HPC).
[15] abbreviates: dose: 25.0 mg/kg/injection, schedule: Q01DX009 (ip), vehicle: saline with Tween-80.

`O=C(CBr)N1CCC2(CC1)SSC1(CCN(C(=O)CBr)CC1)S2`: the T/C reads like this: under setting [1], 112 % of control; under setting [2], 95 % of control and 111 % of control; (dose: 10.0 mg/kg/injection, schedule: Q04DX003 (ip), vehicle: saline with Tween-80) 122 % of control; (dose: 20.0 mg/kg/injection, schedule: Q04DX003 (ip), vehicle: saline with Tween-80) 120 % of control; under setting [3], 123 % of control; (dose: 40.0 mg/kg/injection, schedule: Q04DX003 (ip), vehicle: saline with Tween-80) 114 % of control. Besides, the T/C is, setting by setting: under setting [4], 113 % of control; under setting [5], 112 % of control; under setting [6], 118 % of control; under setting [7], 102 % of control.

Take `O=C(CN1CCCCC1)Nc1ccc(Br)cc1`: the T/C was 96 % of control under setting [8], 104 % of control under setting [5] and 112 % of control under setting [9].

With `CCOC(CN1CCN(CC(C)C(=O)c2ccccc2)CC1)c1ccccc1` (stereo not given), the T/C reads like this: under setting [8], 109 % of control; under setting [5], 118 % of control.

With `CCOC(=O)/C=C(/C)SC1=CC(=O)c2ccccc2C1=O`, the T/C (dose: 1.56 mg/kg/injection, schedule: Q01DX009 (ip), vehicle: saline with Tween-80) was 107 % of control and 113 % of control; the T/C (dose: 3.13 mg/kg/injection, schedule: Q01DX009 (ip), vehicle: saline with Tween-80) was 106 % of control and 107 % of control; the T/C under setting [2] is 104 % of control and 117 % of control; the T/C under setting [10] was 107 % of control and 115 % of control.

Consider `COc1cc([N+](=O)[O-])c(Cl)cc1NS(=O)(=O)c1ccccc1`, for which the T/C was 100 % of control and 108 % of control (dose: 67.0 mg/kg/injection, schedule: Q01DX009 (ip), vehicle: saline with Tween-80); 100 % of control and 111 % of control under setting [5]; 103 % of control under setting [6]; 100 % of control and 111 % of control (dose: 150.0 mg/kg/injection, schedule: Q01DX009 (ip), vehicle: saline with Tween-80); 120 % of control under setting [9]; 92 % of control under setting [7]. The T/C is, setting by setting: under setting [11], 105 % of control; under setting [12], 96 % of control.

As for `Cc1cc(O)c(O)c(C(C)(C)CC(C)(C)C)c1`, the T/C is 95 % of control (dose: 100.0 mg/kg/injection, schedule: Q04DX003 (ip), vehicle: saline + alcohol); 104 % of control (dose: 200.0 mg/kg/injection, schedule: Q04DX003 (ip), vehicle: saline + alcohol); 100 % of control (dose: 400.0 mg/kg/injection, schedule: Q04DX003 (ip), vehicle: saline + alcohol).

As for `Cc1c2ccncc2c(C)c2c1[nH]c1ccccc12`, the T/C runs as follows: (dose: 10.0 mg/kg/injection, schedule: Q01DX010 (ip), vehicle: saline) 163 % of control; (dose: 14.4 mg/kg/injection, schedule: Q04DX003 (ip), vehicle: clinical formulation) 117 % of control; (dose: 15.0 mg/kg/injection, schedule: Q01DX009 (ip), vehicle: water) 175 % of control; (dose: 15.0 mg/kg/injection, schedule: Q04DX003 (ip), vehicle: water) 166 % of control; (dose: 20.0 mg/kg/injection, schedule: Q01DX010 (ip), vehicle: saline) 159 % of control and 179 % of control; (dose: 21.6 mg/kg/injection, schedule: Q04DX003 (ip), vehicle: water) 172 % of control and 176 % of control. Besides, the T/C (dose: 24.0 mg/kg/injection, schedule: Q04DX003 (ip), vehicle: clinical formulation) is 184 % of control; the T/C (dose: 30.0 mg/kg/injection, schedule: Q04DX003 (ip), vehicle: water) was 208 % of control; the T/C (dose: 36.0 mg/kg/injection, schedule: Q04DX003 (ip), vehicle: water) was 235 % of control and 215 % of control; the T/C (dose: 40.0 mg/kg/injection, schedule: Q01DX010 (ip), vehicle: saline) was 150 % of control; the T/C (dose: 40.0 mg/kg/injection, schedule: Q04DX003 (ip), vehicle: clinical formulation) is 208 % of control; the T/C (dose: 100.0 mg/kg/injection, schedule: Q04DX002 (ip), vehicle: Klucel (hydroxypropylcellulose) (HPC)) is 200 % of control. For the same compound, the T/C reads like this: (dose: 120.0 mg/kg/injection, schedule: Q04DX003 (ip), vehicle: water) 100 % of control; (dose: 200.0 mg/kg/injection, schedule: Q04DX002 (ip), vehicle: Klucel (hydroxypropylcellulose) (HPC)) 190 % of control; (dose: 400.0 mg/kg/injection, schedule: Q04DX002 (ip), vehicle: Klucel (hydroxypropylcellulose) (HPC)) 90 % of control.

As to `CC(C)c1cc(C(C)C)nc(NNc2nc(C(C)C)cc(C(C)C)n2)n1`, the T/C is, setting by setting: under setting [5], 90 % of control; under setting [9], 90 % of control; under setting [11], 100 % of control.

Take `COC(=O)C(CSCSCc1ccccc1)NC(=O)C(CSCc1ccccc1)NC(=O)CCNC(=O)OCc1ccccc1` (stereo not given): the T/C is, setting by setting: (dose: 1.56 mg/kg/injection, schedule: Q04DX003 (ip), vehicle: Klucel (hydroxypropylcellulose) (HPC)) 101 % of control; (dose: 3.13 mg/kg/injection, schedule: Q04DX003 (ip), vehicle: Klucel (hydroxypropylcellulose) (HPC)) 120 % of control; (dose: 12.5 mg/kg/injection, schedule: Q04DX003 (ip), vehicle: Klucel (hydroxypropylcellulose) (HPC)) 101 % of control; (dose: 25.0 mg/kg/injection, schedule: Q04DX003 (ip), vehicle: Klucel (hydroxypropylcellulose) (HPC)) 111 % of control.

Take `CCCCCCCCCCCCS(=O)(=O)O` (tested in a mixture with another compound): the T/C by setting is: under setting [13], 95 % of control; under setting [14], 90 % of control.

`COc1cc(-n2c(CCc3nc(-c4ccc(Cl)cc4)no3)n[nH]c2=S)c(OC)cc1Cl`: the T/C under setting [8] was 100 % of control, the T/C under setting [5] was 103 % of control and the T/C under setting [9] is 110 % of control.

As for `CCCCCCCCCC(=O)NN1CCOCC1`, the T/C by setting is: (dose: 100.0 mg/kg/injection, schedule: Q01DX001 (ip), vehicle: saline with Tween-80) 104 % of control; (dose: 200.0 mg/kg/injection, schedule: Q01DX001 (ip), vehicle: saline with Tween-80) 120 % of control; (dose: 400.0 mg/kg/injection, schedule: Q01DX001 (ip), vehicle: saline with Tween-80) 104 % of control.

For the compound `CCNC(C)(C)C(S)c1ccc(Cl)s1` (stereo not given), the T/C runs as follows: under setting [10], 93 % of control; under setting [15], 93 % of control; under setting [3], 101 % of control; under setting [8], 91 % of control and 104 % of control; under setting [4], 91 % of control; (dose: 75.0 mg/kg/injection, schedule: Q04DX003 (ip), vehicle: saline with Tween-80) 108 % of control. Moreover, the T/C is 94 % of control and 109 % of control under setting [5]; 114 % of control under setting [6]; 116 % of control under setting [7].

On to `CC(=O)OCc1c(C)nc2sccn12`, for which the T/C reads like this: (dose: 12.5 mg/kg/injection, schedule: Q01DX001 (ip), vehicle: saline) 102 % of control; (dose: 25.0 mg/kg/injection, schedule: Q01DX001 (ip), vehicle: saline) 92 % of control; (dose: 50.0 mg/kg/injection, schedule: Q01DX001 (ip), vehicle: saline) 96 % of control.

Regarding `O=C(O)C1CC2c3ccccc3C1c1ccccc12` (stereo not given), the T/C reads like this: under setting [13], 90 % of control; under setting [14], 95 % of control; (dose: 400.0 mg/kg/injection, schedule: Q04DX003 (ip), vehicle: Klucel (hydroxypropylcellulose) (HPC)) 109 % of control.

As to `COc1cc(Br)cc(/C=C/[N+](=O)[O-])c1OC`, the T/C under setting [2] was 113 % of control, the T/C under setting [10] is 118 % of control and the T/C under setting [15] is 109 % of control.

As to `CC1CCCCC1O` (stereo not given), the T/C is, setting by setting: under setting [8], 100 % of control and 109 % of control; under setting [5], 93 % of control and 109 % of control; under setting [9], 111 % of control and 95 % of control.

`O=[N+]([O-])c1cc[n+]([O-])c(Br)c1`: the T/C reads like this: under setting [8], 90 % of control; under setting [6], 100 % of control; under setting [9], 87 % of control; under setting [7], 90 % of control.

As for `c1cc[c]([Sn]([c]2ccccc2)([c]2ccccc2)[n]2cncn2)cc1`, the T/C under setting [1] is 106 % of control and the T/C under setting [2] is 106 % of control.

`CCCCCCCCCCCCCCCC(=O)Oc1ccc(/C(CC)=C(/CC)c2ccc(OC(=O)CCCCCCCCCCCCCCC)cc2)cc1`: the T/C under setting [6] was 90 % of control, the T/C under setting [7] is 89 % of control and the T/C under setting [12] is 89 % of control.
